The record followed here is PubChem BioAssay (NCI).

What all share (experiment): NCI anticancer screen, dose series, 48 h
Assay [1] concerns HCT-15 colon.
In assay [2] the test system is HOP-92 NSCLC.
Assay [3] relates to IGROV1 ovarian.
Assay [4] concerns KM12 colon.
The test system of assay [5] is NCI-H522 lung.
Assay [6] has as its system OVCAR-5 ovarian.
Assay [7] has as its system SK-MEL-2 melanoma.
In assay [8] the test system is SN12C renal.
Assay [9] has as its system SNB-75 CNS.
Assay [10] deals with UO-31 renal.

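These data come from cells grown in 96-well plates and exposed to compound for 48 hours at five concentrations. The concentration for 50% growth inhibition is given as GI50. TGI: concentration producing complete growth inhibition.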 Where a SMILES comes first, the peptide text is derived from it. Bridges are numbered along the chain shown (N, C = ends).

As for `CCCCCCCCCCCCCC(=O)NO`, the TGI in assay [1] is 26.2 µM; in assay [2], 43.6 µM; in assay [3] it was 38.3 µM; in assay [4] it was 47.2 µM; in assay [5], 19.5 µM; in [6], greater than 74.1 µM. The TGI in [7] turned out to be 47.6 µM; in [8], 38.9 µM; in assay [9] it was 40 µM; in assay [10], 25.3 µM.
With `N#Cc1ccc(C(=O)c2cnn(-c3ccc(F)cc3)c2N)cc1`, the GI50 in assay [1], in [2], in assay [3], in assay [4], in [5] and in assay [6] was greater than 25 µM each time. Also, the GI50 in assay [7], in assay [8], in [9] and in assay [10] was greater than 25 µM throughout. Moreover, the TGI in [1], in assay [2], in assay [3], in assay [4], in assay [5] and in [6] was greater than 25 µM throughout. The TGI in [7], in assay [8], in [9] and in assay [10] was greater than 25 µM each time.
For the compound `CCC(C)C1NC(=O)C(CC(C)C)NC(=O)C(C(C)C)NC(=O)C2CSSCC(NC1=O)C(=O)N2` (stereo not given) (cyclo(CCVLI); disulfide 1-2; configuration not given here), the TGI was 7.12 µM in assay [1]; 0.248 µM in [2]; 0.309 µM in assay [3]; 0.223 µM in assay [4]; 0.355 µM in assay [5]; 0.381 µM in assay [6]. The TGI was determined as 0.363 µM in assay [7], 0.351 µM in [8], 0.238 µM in assay [9] and 5.84 µM in assay [10].
On to `CN(C)c1ccc2cc3c(cc2c1)Oc1ccccc1N3.[Cl][Zn][Cl]`, for which the GI50 in assay [1] was 2.24 µM; in assay [2], 2.59 µM; in assay [3], 12.8 µM; in assay [4], 13.2 µM; in [5], 1.94 µM; in [6], 1.96 µM. In addition, the GI50 is 9.65 µM in [7], 11.6 µM in assay [8], 11.4 µM in [9] and 1.44 µM in [10]. Moreover, the TGI in [1] turned out to be 6.47 µM; in [2] it was 8.33 µM; in assay [3], 33.8 µM; in [4], 29.1 µM; in [5] it was 4.94 µM; in assay [6], 6.35 µM. Besides, the TGI was 31.3 µM in assay [7], 63.9 µM in assay [8], 24.2 µM in assay [9] and 3.3 µM in assay [10].
Regarding `CCCc1nn(C)c(CCC(=O)N(Cc2ccccc2)Cc2ccccc2)c1CC`, the TGI in [1], in assay [2], in [3], in [4], in assay [5] and in assay [6] was greater than 100 µM each time. For the same compound, the TGI in [7], in [8], in [9] and in assay [10] was greater than 100 µM throughout.
In the case of `CCC1=CCC(P(=O)(c2ccccc2)c2ccccc2)CC1C` (stereo not given), the TGI is greater than 100 µM in [1]; 71.6 µM in assay [2]; greater than 100 µM in assay [3]; greater than 100 µM in [4]; 47.4 µM in assay [5]; greater than 100 µM in [6]. Moreover, the TGI is 83.5 µM in [7], greater than 100 µM in assay [8], 49.7 µM in [9] and 60.5 µM in assay [10].
With `CN(C)c1ccc(/C=N/n2c(CCCCc3n[nH]c(=S)n3/N=C/c3ccc(N(C)C)cc3)n[nH]c2=S)cc1`, the GI50 in assay [1], in [2], in [3], in [4], in assay [5] and in assay [6] was greater than 100 µM throughout. Further, the GI50 in assay [7] is greater than 100 µM; in assay [8], greater than 100 µM; in [9], 30.2 µM; in assay [10], greater than 100 µM. The TGI in assay [1], in assay [2], in assay [3], in assay [4], in [5] and in assay [6] was greater than 100 µM in each case. Also, the TGI in [7], in [8], in assay [9] and in assay [10] was greater than 100 µM throughout.
Take `Cc1ccc(-c2nc3ccccc3c(=O)n2NC2OC(CO)C(O)C(O)C2O)cc1` (stereo not given): the TGI in [1], in assay [2], in [3], in assay [4], in assay [5] and in [6] was greater than 100 µM each time. For the same compound, the TGI in [7], in assay [8], in [9] and in [10] was greater than 100 µM throughout.
Consider `COc1ccc(Cl)cc1Nc1nc(C(F)(F)F)ccc1C(=O)N/N=C/c1ccccc1Cl`, for which the GI50 in [1] was 0.754 µM; in [2], 2.34 µM; in assay [3] it was 2.76 µM; in assay [4], 2.81 µM; in assay [5], 2.74 µM; in assay [6], 3.55 µM. The GI50 in assay [7] is 3.45 µM; in [8] it was 2.56 µM; in assay [9], 7.32 µM; in [10] it was 3.18 µM. The TGI in assay [1] was greater than 63.8 µM; in [2], 12.6 µM; in [3] it was greater than 24.7 µM; in assay [4] it was greater than 28 µM; in assay [5], 16 µM; in assay [6], 54 µM. Besides, the TGI in [7] is greater than 28.4 µM; in [8], greater than 100 µM; in [9] it was greater than 100 µM; in assay [10] it was greater than 26.8 µM.
